Data reported in ChEMBL document CHEMBL5212743, “Selectivity Literature for EUbOPEN Chemogenomics Library wave 3” (2023).
Each block holds one compound with its values, some of them ahead of it.

How the values were obtained:
[1] = target: T1, Myosin-IIIb (Homo sapiens) (UniProt Q8WXR4); test: Selectivity interaction (KinomeScan (DiscoverX)) EUB0000264b MYO3B; details: at 10 µM
T1 sequence (whole entry): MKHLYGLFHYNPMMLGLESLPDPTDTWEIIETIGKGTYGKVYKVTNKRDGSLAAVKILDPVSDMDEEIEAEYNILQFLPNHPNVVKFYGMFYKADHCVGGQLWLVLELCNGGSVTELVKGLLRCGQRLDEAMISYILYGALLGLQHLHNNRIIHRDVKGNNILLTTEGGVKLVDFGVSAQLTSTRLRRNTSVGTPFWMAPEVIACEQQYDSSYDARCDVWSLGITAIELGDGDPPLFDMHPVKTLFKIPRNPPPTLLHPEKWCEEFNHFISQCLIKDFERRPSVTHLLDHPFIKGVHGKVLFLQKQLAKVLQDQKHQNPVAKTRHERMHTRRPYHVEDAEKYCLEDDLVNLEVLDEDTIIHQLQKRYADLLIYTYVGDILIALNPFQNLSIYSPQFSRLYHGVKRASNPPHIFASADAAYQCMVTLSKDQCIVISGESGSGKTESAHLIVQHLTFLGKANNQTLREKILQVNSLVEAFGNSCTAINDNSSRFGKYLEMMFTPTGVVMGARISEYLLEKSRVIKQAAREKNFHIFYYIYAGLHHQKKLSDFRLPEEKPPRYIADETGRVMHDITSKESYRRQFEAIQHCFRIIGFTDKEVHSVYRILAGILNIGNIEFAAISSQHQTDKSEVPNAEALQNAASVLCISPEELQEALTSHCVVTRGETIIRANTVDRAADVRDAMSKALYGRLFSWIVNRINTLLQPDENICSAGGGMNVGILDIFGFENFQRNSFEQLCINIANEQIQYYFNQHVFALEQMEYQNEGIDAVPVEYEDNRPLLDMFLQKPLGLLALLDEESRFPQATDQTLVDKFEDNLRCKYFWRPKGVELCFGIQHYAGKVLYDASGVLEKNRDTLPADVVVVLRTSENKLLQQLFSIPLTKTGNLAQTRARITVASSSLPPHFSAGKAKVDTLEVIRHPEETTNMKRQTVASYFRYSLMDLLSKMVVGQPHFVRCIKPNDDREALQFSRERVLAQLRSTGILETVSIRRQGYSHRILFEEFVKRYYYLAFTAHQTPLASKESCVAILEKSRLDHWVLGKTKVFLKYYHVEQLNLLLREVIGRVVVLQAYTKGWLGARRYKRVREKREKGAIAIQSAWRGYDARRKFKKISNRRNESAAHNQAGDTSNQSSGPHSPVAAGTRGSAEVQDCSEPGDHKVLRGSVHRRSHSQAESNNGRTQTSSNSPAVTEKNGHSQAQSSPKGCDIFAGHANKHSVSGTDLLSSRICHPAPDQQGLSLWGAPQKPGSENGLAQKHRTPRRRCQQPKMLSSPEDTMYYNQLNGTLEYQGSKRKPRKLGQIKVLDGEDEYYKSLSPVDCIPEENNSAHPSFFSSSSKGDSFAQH

[2] = target: T2, Gamma-aminobutyric acid receptor subunit alpha-1 (Homo sapiens, UniProt P14867); test: Selectivity interaction (GPCR panel (PDSP screen)) EUB0000264b GABRA1
T2 sequence (P14867 whole entry): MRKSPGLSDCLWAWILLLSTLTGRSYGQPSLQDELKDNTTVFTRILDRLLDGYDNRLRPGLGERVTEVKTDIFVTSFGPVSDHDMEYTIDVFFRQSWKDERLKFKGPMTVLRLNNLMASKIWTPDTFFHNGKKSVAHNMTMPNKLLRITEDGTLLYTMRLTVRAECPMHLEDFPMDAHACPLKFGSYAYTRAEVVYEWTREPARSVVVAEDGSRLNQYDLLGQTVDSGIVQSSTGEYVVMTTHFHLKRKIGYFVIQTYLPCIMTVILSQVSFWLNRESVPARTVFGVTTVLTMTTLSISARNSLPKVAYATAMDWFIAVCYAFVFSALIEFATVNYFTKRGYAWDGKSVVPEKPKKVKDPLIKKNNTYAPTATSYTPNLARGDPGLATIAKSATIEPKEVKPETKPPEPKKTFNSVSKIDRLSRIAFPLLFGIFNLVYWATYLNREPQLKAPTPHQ

[3] = target: Serine/threonine-protein kinase PRP4 homolog (Homo sapiens) (UniProt Q13523); test: Selectivity interaction (KinomeScan (DiscoverX)) EUB0000264b PRPF4B; details: at 10 µM
[4] = target: Translocator protein (Homo sapiens) (UniProt P30536); test: Selectivity interaction (CEREP panel (Eurofins, binding assay)) EUB0000544a TSPO; details: at 10 µM
[5] = target: T2, Gamma-aminobutyric acid receptor subunit alpha-1; test: Selectivity interaction (GPCR panel (PDSP screen)) EUB0000544a GABRA1
[6] = target: T3, Homeodomain-interacting protein kinase 4 (Homo sapiens) (UniProt Q8NE63); test: Selectivity interaction (KinomeScan (DiscoverX)) EUB0000544a HIPK4; details: at 1 µM
T3 sequence (whole entry): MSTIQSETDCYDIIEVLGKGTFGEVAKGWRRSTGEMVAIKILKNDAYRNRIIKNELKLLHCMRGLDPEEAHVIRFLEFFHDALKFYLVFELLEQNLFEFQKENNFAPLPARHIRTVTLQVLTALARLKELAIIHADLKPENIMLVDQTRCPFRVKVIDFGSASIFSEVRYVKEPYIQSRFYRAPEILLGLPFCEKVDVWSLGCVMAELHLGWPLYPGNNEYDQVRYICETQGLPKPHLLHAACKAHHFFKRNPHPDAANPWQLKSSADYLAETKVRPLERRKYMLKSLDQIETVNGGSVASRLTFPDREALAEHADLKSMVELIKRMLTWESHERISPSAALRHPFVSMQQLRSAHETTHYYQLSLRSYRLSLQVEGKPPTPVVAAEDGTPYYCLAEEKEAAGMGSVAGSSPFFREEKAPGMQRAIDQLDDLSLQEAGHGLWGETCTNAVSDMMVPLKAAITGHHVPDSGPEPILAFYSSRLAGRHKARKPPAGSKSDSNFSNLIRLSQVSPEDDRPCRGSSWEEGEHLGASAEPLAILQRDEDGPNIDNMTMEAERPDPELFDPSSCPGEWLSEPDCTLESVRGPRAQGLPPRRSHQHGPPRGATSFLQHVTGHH

[7] = target: T4, Alpha-2B adrenergic receptor (Homo sapiens) (UniProt P18089); test: Selectivity interaction (CEREP panel (Eurofins, enzymes and uptake assays)) EUB0000544a ADRA2B; details: at 10 µM
T4 sequence (whole entry): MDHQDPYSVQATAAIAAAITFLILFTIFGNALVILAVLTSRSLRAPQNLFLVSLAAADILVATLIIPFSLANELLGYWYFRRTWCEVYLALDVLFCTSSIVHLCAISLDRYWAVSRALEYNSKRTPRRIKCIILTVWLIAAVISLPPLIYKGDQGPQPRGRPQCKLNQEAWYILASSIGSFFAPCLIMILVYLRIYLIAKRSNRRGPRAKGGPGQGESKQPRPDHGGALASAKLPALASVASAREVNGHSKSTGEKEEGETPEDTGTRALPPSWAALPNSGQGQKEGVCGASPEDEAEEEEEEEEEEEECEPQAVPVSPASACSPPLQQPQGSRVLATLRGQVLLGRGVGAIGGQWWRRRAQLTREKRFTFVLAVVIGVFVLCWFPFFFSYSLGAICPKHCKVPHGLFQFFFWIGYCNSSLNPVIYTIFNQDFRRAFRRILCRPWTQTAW

[8] = target: T5, Adenosine receptor A3 (Homo sapiens) (UniProt P0DMS8); test: Selectivity interaction (CEREP panel (Eurofins, enzymes and uptake assays)) EUB0000544a ADORA3; details: at 10 µM
T5 sequence (whole entry): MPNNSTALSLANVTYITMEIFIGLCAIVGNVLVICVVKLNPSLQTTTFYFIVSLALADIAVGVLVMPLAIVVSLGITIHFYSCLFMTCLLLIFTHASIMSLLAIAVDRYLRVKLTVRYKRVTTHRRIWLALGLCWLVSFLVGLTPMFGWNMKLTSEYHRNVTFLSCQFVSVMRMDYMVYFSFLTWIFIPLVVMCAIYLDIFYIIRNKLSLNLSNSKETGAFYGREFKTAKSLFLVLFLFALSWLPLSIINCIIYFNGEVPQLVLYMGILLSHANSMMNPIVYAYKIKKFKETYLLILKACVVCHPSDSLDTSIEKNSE

[9] = target: T5, Adenosine receptor A3 (Homo sapiens); test: Selectivity interaction (CEREP panel (Eurofins, binding assay)) EUB0000544a ADORA3; details: at 10 µM
[10] = target: T4, Alpha-2B adrenergic receptor (Homo sapiens); test: Selectivity interaction (CEREP panel (Eurofins, binding assay)) EUB0000544a ADRA2B; details: at 10 µM
[11] = target: T6, Alpha-1D adrenergic receptor (Homo sapiens, UniProt P25100); test: Selectivity interaction (GPCR panel (PDSP screen)) EUB0000746a ADRA1D
T6 sequence (P25100 whole entry): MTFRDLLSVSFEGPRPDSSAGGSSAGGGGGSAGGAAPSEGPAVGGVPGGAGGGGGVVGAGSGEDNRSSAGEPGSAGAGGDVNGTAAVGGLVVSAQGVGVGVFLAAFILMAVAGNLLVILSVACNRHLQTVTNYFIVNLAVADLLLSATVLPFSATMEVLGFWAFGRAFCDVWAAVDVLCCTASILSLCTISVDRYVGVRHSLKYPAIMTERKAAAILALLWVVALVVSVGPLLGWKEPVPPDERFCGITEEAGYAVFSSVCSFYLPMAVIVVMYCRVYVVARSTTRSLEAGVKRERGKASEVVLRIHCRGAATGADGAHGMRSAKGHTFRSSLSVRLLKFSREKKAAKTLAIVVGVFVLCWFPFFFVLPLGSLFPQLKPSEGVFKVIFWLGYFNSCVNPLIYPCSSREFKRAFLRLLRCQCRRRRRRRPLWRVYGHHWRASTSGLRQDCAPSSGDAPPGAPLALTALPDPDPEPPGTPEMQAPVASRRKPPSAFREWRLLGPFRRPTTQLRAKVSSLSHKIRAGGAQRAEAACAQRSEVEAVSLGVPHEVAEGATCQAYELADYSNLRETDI

[12] = target: Calcium/calmodulin-dependent protein kinase type 1B (Homo sapiens, UniProt Q6P2M8); test: Selectivity interaction (KinomeScan (DiscoverX)) EUB0000746a PNCK; details: at 1 µM
[13] = target: Phosphatidylinositol 4,5-bisphosphate 3-kinase catalytic subunit alpha isoform (Homo sapiens, UniProt P42336); test: Selectivity interaction (KinomeScan (DiscoverX)) EUB0000746a PIK3CA; details: at 1 µM
[14] = target: T7, Mitogen-activated protein kinase 12 (Homo sapiens) (UniProt P53778); test: Selectivity interaction (KinomeScan (DiscoverX)) EUB0000746a MAPK12; details: at 1 µM
T7 sequence (whole entry): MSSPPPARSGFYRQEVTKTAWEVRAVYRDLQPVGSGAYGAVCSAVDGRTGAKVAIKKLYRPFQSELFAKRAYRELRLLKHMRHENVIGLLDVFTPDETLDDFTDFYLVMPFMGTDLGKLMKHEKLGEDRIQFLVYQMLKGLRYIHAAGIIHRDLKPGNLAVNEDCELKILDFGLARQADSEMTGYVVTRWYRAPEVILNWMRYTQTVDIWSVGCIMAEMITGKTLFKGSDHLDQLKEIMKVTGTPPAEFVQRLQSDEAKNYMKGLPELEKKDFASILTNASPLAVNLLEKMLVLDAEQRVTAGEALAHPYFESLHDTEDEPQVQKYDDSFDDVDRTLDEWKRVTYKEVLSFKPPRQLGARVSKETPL

D(3) dopamine receptor = D(3) dopamine receptor (Homo sapiens, UniProt P35462); test: Selectivity interaction (GPCR panel (PDSP screen)) EUB0000746a DRD3
D(3) dopamine receptor, sequence (P35462 whole entry): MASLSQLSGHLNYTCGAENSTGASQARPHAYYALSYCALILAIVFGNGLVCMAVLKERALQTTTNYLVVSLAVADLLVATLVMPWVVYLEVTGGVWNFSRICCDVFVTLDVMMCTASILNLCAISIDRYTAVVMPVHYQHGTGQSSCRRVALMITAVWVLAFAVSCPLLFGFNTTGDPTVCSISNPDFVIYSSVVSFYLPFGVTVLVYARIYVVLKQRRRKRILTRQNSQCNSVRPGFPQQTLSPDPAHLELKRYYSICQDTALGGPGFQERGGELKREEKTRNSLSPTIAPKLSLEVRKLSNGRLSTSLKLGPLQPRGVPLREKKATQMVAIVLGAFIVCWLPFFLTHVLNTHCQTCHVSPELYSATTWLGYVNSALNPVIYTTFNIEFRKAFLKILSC

Phosphatidylinositol 4,5-bisphosphate 3-kinase catalytic subunit alpha isoform, sequence (P42336 whole entry, canonical isoform): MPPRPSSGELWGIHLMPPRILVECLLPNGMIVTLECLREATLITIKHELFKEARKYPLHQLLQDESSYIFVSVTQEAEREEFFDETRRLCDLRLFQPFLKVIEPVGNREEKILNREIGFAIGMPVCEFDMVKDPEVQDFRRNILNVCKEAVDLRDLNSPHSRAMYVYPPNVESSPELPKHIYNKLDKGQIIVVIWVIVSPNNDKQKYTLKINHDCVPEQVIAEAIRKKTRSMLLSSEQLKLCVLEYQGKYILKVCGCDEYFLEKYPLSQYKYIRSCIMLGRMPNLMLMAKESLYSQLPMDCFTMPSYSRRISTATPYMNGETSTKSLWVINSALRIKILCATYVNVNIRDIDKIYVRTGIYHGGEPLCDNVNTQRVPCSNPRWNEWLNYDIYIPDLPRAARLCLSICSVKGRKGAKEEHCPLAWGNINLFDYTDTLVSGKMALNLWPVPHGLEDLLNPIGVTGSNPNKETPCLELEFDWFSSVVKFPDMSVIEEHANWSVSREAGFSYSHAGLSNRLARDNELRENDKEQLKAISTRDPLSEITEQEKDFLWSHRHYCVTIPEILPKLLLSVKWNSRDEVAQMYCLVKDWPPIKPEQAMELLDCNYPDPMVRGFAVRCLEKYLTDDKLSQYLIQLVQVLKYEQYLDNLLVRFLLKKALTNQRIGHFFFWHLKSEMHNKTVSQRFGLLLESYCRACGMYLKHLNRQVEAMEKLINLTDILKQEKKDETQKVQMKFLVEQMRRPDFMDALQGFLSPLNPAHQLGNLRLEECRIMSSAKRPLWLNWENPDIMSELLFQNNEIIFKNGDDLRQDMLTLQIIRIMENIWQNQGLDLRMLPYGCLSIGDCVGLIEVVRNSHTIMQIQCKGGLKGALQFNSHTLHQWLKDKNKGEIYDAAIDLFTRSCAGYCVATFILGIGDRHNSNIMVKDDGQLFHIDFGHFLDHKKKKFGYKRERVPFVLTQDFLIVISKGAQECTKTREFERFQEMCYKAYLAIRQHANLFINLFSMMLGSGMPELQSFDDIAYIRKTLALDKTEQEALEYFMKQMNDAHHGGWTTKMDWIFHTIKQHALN
Translocator protein (Homo sapiens), sequence (P30536 whole entry): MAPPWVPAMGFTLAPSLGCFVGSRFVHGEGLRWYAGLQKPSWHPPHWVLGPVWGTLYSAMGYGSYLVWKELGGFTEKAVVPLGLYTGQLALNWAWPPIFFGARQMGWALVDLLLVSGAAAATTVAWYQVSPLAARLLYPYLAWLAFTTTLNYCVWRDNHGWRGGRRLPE
Serine/threonine-protein kinase PRP4 homolog (Homo sapiens), sequence (Q13523 whole entry): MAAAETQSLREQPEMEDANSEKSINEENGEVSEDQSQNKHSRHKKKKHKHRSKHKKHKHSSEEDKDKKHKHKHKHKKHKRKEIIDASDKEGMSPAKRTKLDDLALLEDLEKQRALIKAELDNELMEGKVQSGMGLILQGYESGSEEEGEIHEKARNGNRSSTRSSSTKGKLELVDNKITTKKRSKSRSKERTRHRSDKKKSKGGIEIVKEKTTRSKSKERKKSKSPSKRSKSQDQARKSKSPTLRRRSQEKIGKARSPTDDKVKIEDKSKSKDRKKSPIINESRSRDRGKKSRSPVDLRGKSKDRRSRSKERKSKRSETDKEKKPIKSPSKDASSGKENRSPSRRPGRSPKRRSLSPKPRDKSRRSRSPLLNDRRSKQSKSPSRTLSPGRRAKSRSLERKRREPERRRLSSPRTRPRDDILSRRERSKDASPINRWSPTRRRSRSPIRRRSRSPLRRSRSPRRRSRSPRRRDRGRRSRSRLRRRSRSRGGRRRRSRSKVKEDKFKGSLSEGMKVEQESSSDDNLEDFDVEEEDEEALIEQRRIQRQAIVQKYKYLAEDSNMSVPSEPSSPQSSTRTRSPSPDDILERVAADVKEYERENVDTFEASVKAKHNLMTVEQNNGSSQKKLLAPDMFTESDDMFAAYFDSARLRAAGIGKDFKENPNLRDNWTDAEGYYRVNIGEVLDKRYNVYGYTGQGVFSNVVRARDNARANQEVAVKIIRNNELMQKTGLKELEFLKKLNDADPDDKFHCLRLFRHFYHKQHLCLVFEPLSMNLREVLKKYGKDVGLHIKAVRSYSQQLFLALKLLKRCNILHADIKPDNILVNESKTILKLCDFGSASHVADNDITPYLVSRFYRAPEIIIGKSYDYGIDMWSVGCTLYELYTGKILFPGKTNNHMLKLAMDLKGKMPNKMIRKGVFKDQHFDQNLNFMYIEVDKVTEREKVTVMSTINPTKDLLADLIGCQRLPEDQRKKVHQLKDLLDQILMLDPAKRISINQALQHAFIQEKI
Calcium/calmodulin-dependent protein kinase type 1B, sequence (Q6P2M8 whole entry, canonical isoform): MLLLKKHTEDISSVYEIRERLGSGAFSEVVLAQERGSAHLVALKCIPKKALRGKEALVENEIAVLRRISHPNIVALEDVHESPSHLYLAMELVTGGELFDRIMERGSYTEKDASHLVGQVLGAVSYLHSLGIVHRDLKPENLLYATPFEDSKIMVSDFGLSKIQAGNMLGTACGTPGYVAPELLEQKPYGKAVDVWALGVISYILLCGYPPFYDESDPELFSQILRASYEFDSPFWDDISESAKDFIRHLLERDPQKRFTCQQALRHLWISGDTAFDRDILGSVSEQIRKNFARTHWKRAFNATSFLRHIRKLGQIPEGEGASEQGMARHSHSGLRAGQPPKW

- % of control [1]: 39%
- Ki [2]: 218 nM
- % of control [3]: 56%
Structure (SMILES): COc1ccc2c(c1)O[C@H](c1ccc(OC)c(OC)c1)C[C@@H]2NC(=O)C1(c2ccc3c(c2)OC(F)(F)O3)CC1 [A-1596584]

- % of inhibition [4]: 95.5%
- Ki [5]: 19.6 nM
- % of control [6]: 51%
- % of inhibition [7]: 63.5%
- % of inhibition [8]: 63.9%
- % of inhibition [9]: 63.9%
- % of inhibition [10]: 63.5%
Structure (SMILES): COc1ccc2c(c1)O[C@@H](c1ccc(OC)c(OC)c1)C[C@H]2NC(=O)C1(c2ccc3c(c2)OC(F)(F)O3)CC1 [A-1596586]

- Ki [11]: > 10000 nM
- % of control [12]: 0%
- % of control [13]: 50%
- % of control [14]: 50%
- Ki (D(3) dopamine receptor): > 10000 nM
Structure (SMILES): O=C(NS(=O)(=O)c1ccc(NCC2CCOCC2)c([N+](=O)[O-])c1)c1ccc(N2CCN(Cc3ccc(C(F)(F)F)cc3-c3ccc(Cl)cc3)CC2)cc1Oc1cnc2[nH]ccc2c1 [A-1210227]
